Data published in patent US10000501B2, “Inhibitors of HIF prolyl hydroxylase” (MERCK SHARP & DOHME CORP., priority 2014, dated 2018).

The molecules below were run against T1, human HIF-PHD2 (Homo sapiens, UniProt Q9GZT9) (assay: HIF-PHD2 inhibition assay (hydroxylation of HIF-1α peptide, time resolved fluorescence)). Settings: FLAG-tagged full length PHD2; 0.2 μM 2-oxoglutarate, 0.5 μM HIF-1α peptide.
T1 construct: FLAG-tagged full length PHD2 expressed in and purified from baculovirus-infected Sf9 cells; FLAG; made in house; host or cells: baculovirus-infected Sf9 cells
T1 sequence (Q9GZT9 whole entry): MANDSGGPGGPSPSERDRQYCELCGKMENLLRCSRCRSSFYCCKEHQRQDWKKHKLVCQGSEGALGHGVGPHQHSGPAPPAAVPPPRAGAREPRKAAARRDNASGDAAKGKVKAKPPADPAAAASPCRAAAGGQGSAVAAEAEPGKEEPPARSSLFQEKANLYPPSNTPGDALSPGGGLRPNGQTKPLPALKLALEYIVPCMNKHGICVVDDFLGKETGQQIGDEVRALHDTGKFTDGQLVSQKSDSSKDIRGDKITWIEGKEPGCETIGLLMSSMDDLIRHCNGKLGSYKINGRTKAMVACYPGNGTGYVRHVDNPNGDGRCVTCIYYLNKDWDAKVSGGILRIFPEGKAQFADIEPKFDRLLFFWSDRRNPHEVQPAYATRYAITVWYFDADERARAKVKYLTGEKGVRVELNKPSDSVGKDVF
Format: biochemical
Protocol: To each well of a 384-well plate, 1 μL of test compounds in DMSO (final concentration ranging from 0.3 nM to 10 uM) were added into 20 μl of assay buffer (50 mM Tris pH 7.4/0.01% Tween-20/0.1 mg/ml bovine serum albumin/10 μM ferrous sulfate/1 mM sodium ascorbate/20 μg/ml catalase) containing 0.15 μg/ml FLAG-tagged full length PHD2 expressed in and purified from baculovirus-infected Sf9 cells. […] Purif.

Row | SMILES | IC50 [nM]
1 | O=C(O)CNC(=O)c1c(O)c2c(n(Cc3nc4ccccc4s3)c1=O)C1CCC2C1 (racemic) [Example 82, 2-((5S,8R)-1-(benzo[d]thiazol-2-ylmethyl)-4-hydroxy-2-oxo-1,2,5,6,7,8-hexahydro-5,8-methanoquinoline-3-carboxamido)acetic acid] | 43
2 | CN1Cc2c(c(O)c(C(=O)NCC(=O)O)c(=O)n2Cc2ccc(C(F)(F)F)cc2)CC1=O [Example 3, 2-(4-Hydroxy-7-methyl-2,6-dioxo-1-(4-(trifluoromethyl)benzyl)-1,2,5,6,7,8-hexahydro-1,7-naphthyridine-3-carboxamido)acetic acid] | 6.7
3 | O=C(O)CNC(=O)c1c(O)c2c([nH]c1=O)CCOC2 [Example 4, 2-(4-Hydroxy-2-oxo-2,5,7,8-tetrahydro-1H-pyrano[4,3-b]pyridine-3-carboxamido)acetic acid] | 41.8
4 | N#Cc1ccc(Cn2c3c(c(O)c(C(=O)NCC(=O)O)c2=O)COCC3)cc1 [Example 5, 2-(1-(4-Cyanobenzyl)-4-hydroxy-2-oxo-2,5,7,8-tetrahydro-1H-pyrano[4,3-b]pyridine-3-carboxamido)acetic acid] | 13.9
5 | COc1ccc(Cn2c3c(c(O)c(C(=O)NCC(=O)O)c2=O)COCC3)cc1 [Example 6, 2-(4-hydroxy-1-(4-methoxybenzyl)-2-oxo-2,5,7,8-tetrahydro-1H-pyrano[4,3-b]pyridine-3-carboxamido)acetic acid] | 15.6
6 | O=C(O)CNC(=O)c1c(O)c2c(n(Cc3ccc(OC(F)(F)F)cc3)c1=O)CCOC2 [Example 7, 2-(4-hydroxy-2-oxo-1-(4-(trifluoromethoxy)benzyl)-2,5,7,8-tetrahydro-1H-pyrano[4,3-b]pyridine-3-carboxamido)acetic acid] | 10.3
7 | O=C(O)CNC(=O)c1c(O)c2c(n(Cc3ccc(OC(F)F)cc3)c1=O)CCOC2 [Example 8, 2-(1-(4-(difluoromethxoy)benzyl)-4-hydroxy-2-oxo-2,5,7,8-tetrahydro-1H-pyrano[4,3-b]pyridine-3-carboxamido)acetic acid] | 13.4
8 | O=C(O)CNC(=O)c1c(O)c2c(n(Cc3ccc(F)cc3)c1=O)CCOC2 [Example 9, 2-(1-(4-fluorobenzyl)-4-hydroxy-2-oxo-2,5,7,8-tetrahydro-1H-pyrano[4,3-b]pyridine-3-carboxamido)acetic acid] | 13.7
9 | CS(=O)(=O)c1ccc(Cn2c3c(c(O)c(C(=O)NCC(=O)O)c2=O)COCC3)cc1 [Example 11, 2-(4-hydroxy-1-(4-(methylsulfonyl)benzyl)-2-oxo-2,5,7,8-tetrahydro-1H-pyrano[4,3-b]pyridine-3-carboxamido)acetic acid] | 20.2
10 | CC(C)c1ccc(Cn2c3c(c(O)c(C(=O)NCC(=O)O)c2=O)COCC3)cc1 [Example 12, 2-(4-hydroxy-1-(4-isopropylbenzyl)-2-oxo-2,5,7,8-tetrahydro-1H-pyrano[4,3-b]pyridine-3-carboxamido)acetic acid] | 12.5
11 | CC(C)Oc1ccc(Cn2c3c(c(O)c(C(=O)NCC(=O)O)c2=O)COCC3)cc1 [Example 13, 2-(4-hydroxy-1-(4-isopropoxybenzyl)-2-oxo-2,5,7,8-tetrahydro-1H-pyrano[4,3-b]pyridine-3-carboxamido)acetic acid] | 20.5
12 | O=C(O)CNC(=O)c1c(O)c2c(n(Cc3ccc(F)c(F)c3)c1=O)CCOC2 [Example 15, 2-(1-(3,4-difluorobenzyl)-4-hydroxy-2-oxo-2,5,7,8-tetrahydro-1H-pyrano[4,3-b]pyridine-3-carboxamido)acetic acid] | 14.7
13 | O=C(O)CNC(=O)c1c(O)c2c(n(Cc3ccc(F)cc3F)c1=O)CCOC2 [Example 16, 2-(1-(2,4-difluorobenzyl)-4-hydroxy-2-oxo-2,5,7,8-tetrahydro-1H-pyrano[4,3-b]pyridine-3-carboxamido)acetic acid] | 10.3
14 | O=C(O)CNC(=O)c1c(O)c2c(n(Cc3ccc(Cl)cc3F)c1=O)CCOC2 [Example 18, 2-(1-(4-chloro-2-fluorobenzyl)-4-hydroxy-2-oxo-2,5,7,8-tetrahydro-1H-pyrano[4,3-b]pyridine-3-carboxamid)acetic acid] | 19.2
15 | CCn1c2c(c(O)c(C(=O)NCC(=O)O)c1=O)COCC2 [Example 19, 2-(1-ethyl-4-hydroxy-2-oxo-2,5,7,8-tetrahydro-1H-pyrano[4,3-b]pyridine-3-carboxamido)acetic acid] | 78.5
16 | O=C(O)CNC(=O)c1c(O)c2c(n(CC3CCCCC3)c1=O)CCOC2 [Example 20, 2-(1-(cyclohexylmethyl)-4-hydroxy-2-oxo-2,5,7,8-tetrahydro-1H-pyrano[4,3-b]pyridine-3-carboxamido)acetic acid] | 76
17 | O=C(O)CNC(=O)c1c(O)c2c(n(Cc3ccc4ccccc4c3)c1=O)CCOC2 [Example 21, 2-(4-hydroxy-1-(naphthalen-2-ylmethyl)-2-oxo-2,5,7,8-tetrahydro-1H-pyrano[4,3-b]pyridine-3-carboxamido)acetic acid] | 37.7

Row | SMILES | IC50 [nM]
18 | Cn1c2c(c(O)c(C(=O)NCC(=O)O)c1=O)COCC2 [Example 22, 2-(4-hydroxy-1-methyl-2-oxo-2,5,7,8-tetrahydro-1H-pyrano[4,3-b]pyridine-3-carboxamido)acetic acid] | 56.1
19 | O=C(O)CNC(=O)c1c(O)c2c(n(Cc3ncc(C(F)(F)F)cn3)c1=O)CCOC2 [Example 23, 2-(4-hydroxy-2-oxo-1-((5-(trifluoromethyl)pyrimidin-2-yl)methyl)-2,5,7,8-tetrahydro-1H-pyrano[4,3-b]pyridine-3-carboxamido)acetic acid] | 44.5
20 | O=C(O)CNC(=O)c1c(O)c2c(n(Cc3cc(F)c(F)cc3F)c1=O)CCOC2 [Example 24, 2-(4-Hydroxy-2-oxo-1-(2,4,5-trifluorobenzyl)-2,5,7,8-tetrahydro-1H-pyrano[4,3-b]pyridine-3-carboxamido)acetic acid] | 16.8
21 | CNC(=O)c1ccc(Cn2c3c(c(O)c(C(=O)NCC(=O)O)c2=O)COCC3)cc1 [Example 26, 2-(4-Hydroxy-1-(4-(methylcarbamoyl)benzyl)-2-oxo-2,5,7,8-tetrahydro-1H-pyrano[4,3-b]pyridine-3-carboxamido)acetic acid] | 30.8
22 | Cn1ccc(Cn2c3c(c(O)c(C(=O)NCC(=O)O)c2=O)COCC3)n1 [Example 27, 2-(4-Hydroxy-1-((1-methyl-1H-pyrazol-3-yl)methyl)-2-oxo-2,5,7,8-tetrahydro-1H-pyrano[4,3-b]pyridine-3-carboxamido)acetic acid] | 32.6
23 | Cc1cc(Cn2c3c(c(O)c(C(=O)NCC(=O)O)c2=O)COCC3)ccc1C#N [Example 28, 2-(1-(4-Cyano-3-methylbenzyl)-4-hydroxy-2-oxo-2,5,7,8-tetrahydro-1H-pyrano[4,3-b]pyridine-3-carboxamido)acetic acid] | 14.5
24 | N#Cc1ccc(Cn2c3c(c(O)c(C(=O)NCC(=O)O)c2=O)COCC3)cc1F [Example 29, 2-(1-(4-Cyano-3-fluorobenzyl)-4-hydroxy-2-oxo-2,5,7,8-tetrahydro-1H-pyrano[4,3-b]pyridine-3-carboxamido)acetic acid] | 16
25 | COc1ccc(Cn2c3c(c(O)c(C(=O)NCC(=O)O)c2=O)COCC3)cn1 [Example 30, 2-(4-Hydroxy-1-((6-methoxypyridin-3-yl)methyl)-2-oxo-2,5,7,8-tetrahydro-1H-pyrano[4,3-b]pyridine-3-carboxamido)acetic acid] | 17.4
26 | O=C(O)CNC(=O)c1c(O)c2c(n(Cc3cncs3)c1=O)CCOC2 [Example 31, 2-(4-Hydroxy-2-oxo-1-(thiazol-5-ylmethyl)-2,5,7,8-tetrahydro-1H-pyrano[4,3-b]pyridine-3-carboxamido)acetic acid] | 32.8
27 | O=C(O)CNC(=O)c1c(O)c2c(n(Cc3ccn(-c4ccccc4)n3)c1=O)CCOC2 [Example 32, 2-(4-Hydroxy-2-oxo-1-((1-phenyl-1H-pyrazol-3-yl)methyl)-2,5,7,8-tetrahydro-1H-pyrano[4,3-b]pyridine-3-carboxamido)acetic acid] | 12.1
28 | CC(C)(O)c1ccc(Cn2c3c(c(O)c(C(=O)NCC(=O)O)c2=O)COCC3)cc1 [Example 33, 2-(4-Hydroxy-1-(4-(2-hydroxypropan-2-yl)benzyl)-2-oxo-2,5,7,8-tetrahydro-1H-pyrano[4,3-b]pyridine-3-carboxamido)acetic acid] | 49.9
29 | NC(=O)c1ccc(Cn2c3c(c(O)c(C(=O)NCC(=O)O)c2=O)COCC3)cc1 [Example 34, 2-(1-(4-Carbamoylbenzyl)-4-hydroxy-2-oxo-2,5,7,8-tetrahydro-1H-pyrano[4,3-b]pyridine-3-carboxamido)acetic acid] | 29.3
30 | O=C(O)CNC(=O)c1c(O)c2c(n(Cc3csc(C(F)(F)F)n3)c1=O)CCOC2 [Example 35, 2-(4-Hydroxy-2-oxo-1-((2-(trifluoromethyl)thiazol-4-yl)methyl)-2,5,7,8-tetrahydro-1H-pyrano[4,3-b]pyridine-3-carboxamido)acetic acid] | 15.1
31 | O=C(O)CNC(=O)c1c(O)c2c(n(-c3ccc(OC(F)(F)F)cc3)c1=O)CCOC2 [Example 36, 2-(4-Hydroxy-2-oxo-1-(4-(trifluoromethoxy)phenyl)-2,5,7,8-tetrahydro-1H-pyrano[4,3-b]pyridine-3-carboxamido)acetic acid] | 98.8
32 | O=C(O)CNC(=O)c1c(O)c2c(n(Cc3ccc(Cl)cc3)c1=O)COCC2 [Example 37, 2-(1-(4-Chlorobenzyl)-4-hydroxy-2-oxo-2,5,6,8-tetrahydro-1H-pyrano[3,4-b]pyridine-3-carboxamido)acetic acid] | 50.2
33 | O=C(O)CNC(=O)c1c(O)c2c(n(Cc3ccc(F)cc3F)c1=O)COCC2 [Example 38, 2-(1-(2,4-difluorobenzyl)-4-hydroxy-2-oxo-2,5,6,8-tetrahydro-1H-pyrano[3,4-b]pyridine-3-carboxamido)acetic acid] | 24.1
